Test results published in patent US9173397B2, “Formulation component” (Syngenta Limited, priority 2011, dated 2015).
Read-outs that look alike come from different tables or passages of the source.

Assays:
[1] = tested on: Chenopodium album, Abutilon theophrasti, Setaria viridis, Xanthium strumarium; experiment: Glasshouse weed kill, fomesafen with/without adjuvants (Example 4); type: in vivo
Method: (§1) The efficacy of the aromatic acid ester Morflex ®560 (tri-n-hexyltrimellitate) as an adjuvant for the herbicide fomesafen was tested against four weed species in a glasshouse and compared to the well-know adjuvants, acetyl tributyl citrate and Turbocharge® which were added at concentrations of 0.2 and 0.5% w/w respectively. The adjuvant oils were emulsified using a small amount of the surfactant Pluronic® PE 10500, which was present in the composition at a concentration of 0.02% v/v.
An agrochemical composition was prepared containing 0.2% v/v of the adjuvant in a track sprayer and was applied at a volume of 200 liters per hectare. Fomesafen was applied at either 60 or 120 grams of pesticide per hectare on each of the weed species. The weed species and their growth stage at spraying were Chenopodium album (CHEAL; growth stage 14), Abutilon theophrasti (ABUTH; growth stage 12), Setaria viridis (SETVI; growth stage 13), and Xanthium strumarium (XANST; growth stage 12).
Each spray test was replicated three times. The efficacy of the herbicide was assessed visually and expressed as a percentage of the leaf area killed. Samples were assessed at time periods of 7, 14 and 21 days following application. […]

[2] = tested on: Polygonum convolvulus, Brachiaria platyphylla, Digitaria sanguinalis, Amaranthus tuberculatus; experiment: Glasshouse weed kill, mesotrione with/without adjuvants (Example 5); type: in vivo
Method: The efficacy of the aromatic ester tri-n-hexyltrimellitate (Morflex®560) was tested in a glasshouse against four weed species using the herbicide mesotrione. An agrochemical composition was prepared containing 0.2% v/v of the adjuvant in a track sprayer and was applied at a volume of 200 liters per hectare. The adjuvant oils were emulsified using a small amount of the surfactant Pluronic® PE 10500, which was present in the composition at a concentration of 0.02% v/v. Mesotrione was applied at either 45 or 90 grams of pesticide per hectare on weeds which had been grown to the 1.3 or 1.4 leaf stage. The weed species were Polygonum convolvulus (POLCO), Brachiaria platyphylla (BRAPL) Digitaria sanguinalis (DIGSA) and Amaranthus tuberculatus (AMATU).
Each spray test was replicated three times. The efficacy of the herbicide was assessed visually and expressed as a percentage of the leaf area killed. Samples were assessed at time periods of 7, 14 and 21 days following application. The results shown in Table 6 below are mean averages over the two rates of mesotrione, three relicates, four weed species and the three assessment timings and are compared to the efficacy of mesotrione in the absence of an adjuvant, and mesotrione in the presence of the commercially available adjuvants acetyl tributyl citrate or Tween®20 which were used at concentrations of 0.2 and 0.5% w/w respectively.

[3] = tested on: Abutilon theophrasti, Chenopodium album, Digitaria sanguinalis, Setaria viridis; experiment: Glasshouse weed kill, nicosulfuron with/without adjuvants (Example 3); type: in vivo
Method: as §1, with “nicosulfruon” for “fomesafen”, “adjuvants, tris-2-ethylhexyl phosphate and” for “adjuvants,”, “citrate” for “citrate and Turbocharge®”, “tested” for “added”, “0.2% w/w.” for “0.2 and 0.5% w/w respectively.”
An agrochemical composition was prepared containing 0.2% v/v of the adjuvant in a track sprayer, and was applied at a volume of 200 liters per hectare. Nicosulfuron was applied at a rate of either 30 or 60 grams of pesticide per hectare. The weed species and their growth stage at spraying were Abutilon theophrasti (ABUTH; growth stage 13), Chenopodium album (CHEAL; growth stage 14), Digitaria sanguinalis (DIGSA; growth stage 13), and Setaria viridis (SETVI; growth stage 13).
Each spray test replicated three times. The efficacy of the herbicide was assessed visually and expressed as a percentage of the leaf area killed. Samples were assessed at time periods of 14 and 21 days following application. […]

[4] = tested on: Abutilon theophrasti, Chenopodium album, Digitaria sanguinalis, Setaria viridis; type: in vivo; details: for adjuvant efficacy in words (nicosulfuron): conclusion from Table 8
Method: The efficacy of the aromatic esters tri-n-hexyltrimellitate (Morflex®560) and tri-isodecylmellitate (Morflex®530) as adjuvants for nicosulfuron were tested in a glasshouse against four weed species. An agrochemical composition was prepared containing 0.2% v/v of the adjuvant in a track sprayer, and was applied at a volume of 200 liters per hectare. The adjuvant oils were emulsified using a small amount of the surfactant Pluronic® PE 10500, which was present in the composition at a concentration of 0.02% v/v. Nicosulfuron was applied at a rate of either 30 or 60 grams per hectare. The weed species and their growth stage at spraying were Abutilon theophrasti (ABUTH; growth stage 13), Chenopodium album (CHEAL; growth stage 14), Digitaria sanguinalis (DIGSA; growth stage 13), and Setaria viridis (SETVI; growth stage 13).
Each spray test was replicated three times. The efficacy of the herbicide was assessed visually and expressed as a percentage of the leaf area killed. Samples were assessed at time periods of 14 and 21 days following application. […] In this experiment Atplus®411F was added at the higher rate of 0.5% v/v. The other adjuvants were added at 0.2% v/v.

[5] = tested on: Alopecurus myosuroides, Avena fatua, Lolium perenne, Setaria viridis; experiment: Glasshouse weed kill, pinoxaden with/without adjuvants (Example 6); type: in vivo
Method: The efficacy of the aromatic ester tri-n-hexyltrimellitate (Morflex®560) was tested in a glasshouse against four weed species using the herbicide pinoxaden. An agrochemical composition was prepared containing 0.2% v/v of the adjuvant in a track sprayer and was applied at a volume of 200 liters per hectare. The adjuvant oils were emulsified using a small amount of the surfactant Pluronic® PE 10500, which was present in the composition at a concentration of 0.02% v/v. Pinoxaden was applied at either 7.5 or 15 grams of pesticide per hectare on each of the weed species. The weed species and their growth stage at spraying were Alopecurus myosuroides (ALOMY; growth stage 13), Avena fatua (AVEFA; growth stage 12); Lolium perenne (LOLPE; growth stage 13), Setaria viridis (SETVI; growth stage 14).
Each spray test was replicated three times. The efficacy of the herbicide was assessed visually and expressed as a percentage of the leaf area killed. Samples were assessed at time periods of 14 and 21 days following application. The results shown in table 7 below are mean averages over the two rates of pinoxaden, three replicates, four weed species and the two assessment timings, and are compared to the efficacy of pinoxaden in the absence of adjuvant and pinoxaden in the presence of the known adjuvant acetyl tributyl citrate which was used at a concentration of 0.2% w/w.

[6] = tested on: Alopecurus myosuroides, Avena fatua, Lolium perenne, Setaria viridis; experiment: Glasshouse weed kill, pinoxaden with/without adjuvants (Example 8); type: in vivo; details: for adjuvant efficacy in words (pinoxaden): conclusion from Table 9
Method: The efficacy of the aromatic esters tri-n-hexyltrimellitate (Morflex®560) and tri-isodecylmellitate (Morflex®530) as adjuvants for pinoxaden were tested in a glasshouse against four weed species. An agrochemical composition was prepared containing 0.2% v/v of the adjuvant in a track sprayer and was applied at a volume of 200 liters per hectare. Pinoxaden was applied at either 7.5 or 15 grams per hectare on each of the weed species. The weed species and their growth stage at spraying were Alopecurus myosuroides (ALOMY; growth stage 13), Avena fatua (AVEFA; growth stage 12); Lolium perenne (LOLPE; growth stage 13), Setaria viridis (SETVI; growth stage 14).
Each spray test was replicated three times. The efficacy of the herbicide was assessed visually and expressed as a percentage of the leaf area killed. Samples were assessed at time periods of 7 and 14 days following application. The results shown in Table 9 below are mean averages over the two rates of pinoxaden, three replicates, four weed species and the two assessment timings. The results were compared to the efficacy of pinoxaden in the absence of an adjuvant and pinoxaden in the presence of either tri-2-ethylhexyl phosphate (applied at 0.5% v/v) or methyl oleate (applied at 0.2% v/v).

Septoria tritici = Septoria tritici infection of wheat plants, isopyrazam spray with/without adjuvants; type: in vivo, Septoria tritici (on wheat plants); details: conclusion from Table 2
Method: The efficacy of the following aromatic acid esters tri-n-hexyltrimellitate (Morflex®560) and tri-isodecyl trimellitate (Morflex®530), as adjuvants in compositions comprising isopyrazam was tested and compared to the standard formulations (both EC and SC) of the fungicide, which lack this type of adjuvant.
Wheat plants were inoculated with the fungus Septoria tritici. Five days after inoculation the plants were sprayed with a diluted emulsion concentrate or suspension concentrate formulation of the fungicide isopyrazam at rates of 3, 10, 30 and 100 mg of the fungicide per litre of spray solution, using a laboratory track sprayer which delivered the spray at a rate of 200 liters per hectare. Spray tests were also carried out with diluted suspension concentrate additionally comprising each of the benzoate adjuvants described above. These adjuvants were added to the spray solution at a rate of 0.5% w/w, based on the quantity of spray liquor. The adjuvant oils were emulsified using a small amount of the surfactant Pluronic® PE 10500, which was present in the composition at a concentration of 0.02% v/v. The leaves of the plants were assessed visually 14 days after the spray application and the damage was expressed as the percentage of the leaf area infected.

Tetranychus urticae = experiment: Mortality of two spotted spider mite on French bean plants, abamectin with/without Morflex 560; type: in vivo, Tetranychus urticae (on Phaseolus vulgaris); details: for % mortality of Tetranychus urticae: 10 days, larva and adults averaged, Morflex 560 0.1% v/v where present
Method: The efficacy of tri-n-hexyltrimellitate (Morflex® 560) as an adjuvant in compositions containing abamectin was tested and compared to the efficacy of abamectin compositions which lack this type of adjuvant. The Morflex 560 was present at 0.1% v/v in the abamectin compositions. The surfactants polyoxyethylene sorbitan monooleate and an ethoxylated castor oil were also present in all the abamectin compositions tested. Two week old French bean (Phaseolus vulgaris) plants were infested with a mixed population of two spotted spider mite Tetranychus urticae. One day after infestation the plants were treated with the test compositions, with a track sprayer from the top with a rate of 200 liters per hectare. Plants were incubated in the greenhouse for 10 days and the evaluation was done on mortality against Larva and Adults, just on the lower side (untreated) of the leaves. Each experiment was replicated twice and the results were averaged. The mortality against Larva and Adults was then averaged.

CS(=O)(=O)NC(=O)c1cc(Oc2ccc(C(F)(F)F)cc2Cl)ccc1[N+](=O)[O-] [Fomesafen, reference compound]
Mean percentage kill, mean across species ([1]; % leaf area killed, mean over fomesafen 60 and 120 g/ha, 7, 14 and 21 days, four species, adjuvant 0.2% (Turbocharge 0.5% w/w)): 22.5 D %

CS(=O)(=O)c1ccc(C(=O)C2C(=O)CCCC2=O)c([N+](=O)[O-])c1 [Mesotrione, reference compound]
Mean percentage kill, mean across species ([2]; % leaf area killed, mean over mesotrione 45 and 90 g/ha, 7, 14 and 21 days, four species, adjuvant 0.2% (Tween 20 0.5% w/w)): 34.0 B %

COc1cc(OC)nc(NC(=O)NS(=O)(=O)c2ncccc2C(=O)N(C)C)n1 [Nicosulfuron, reference compound]
Mean percentage kill, mean across species ([3]; % leaf area killed, mean over nicosulfuron 30 and 60 g/ha, 14 and 21 days, four species, adjuvant 0.2%): 42.5 B % | Mean percentage kill, mean across species ([4]; % leaf area killed, mean over nicosulfuron 30 and 60 g/ha, 14 and 21 days, four species, adjuvant 0.2% v/v (Atplus 411F 0.5% v/v)): 31.1 E %

CCc1cc(C)cc(CC)c1-c1c(OC(=O)C(C)(C)C)n2n(c1=O)CCOCC2 [Pinoxaden, reference compound]
Mean percentage kill, mean across species ([5]; % leaf area killed, mean over pinoxaden 7.5 and 15 g/ha, 14 and 21 days, four species, adjuvant 0.2%): 11.4 C % | Mean percentage kill, mean across species ([6]; % leaf area killed, mean over pinoxaden 7.5 and 15 g/ha, 7 and 14 days, four species, adjuvant 0.2% v/v (tri-2-ethylhexyl phosphate 0.5% v/v)): 2.3 D %

CC(C)CCCCCCCOC(=O)c1ccc(C(=O)OCCCCCCCC(C)C)c(C(=O)OCCCCCCCC(C)C)c1 [Tri-isodecyl trimellitate]
adjuvant efficacy in words (isopyrazam, S. tritici) (Septoria tritici): as efficacious as the commercial tank mix adjuvant Turbocharge® | adjuvant efficacy in words (nicosulfuron) [4]: increases the efficacy of the herbicide nicosulfuron | adjuvant efficacy in words (pinoxaden) [6]: increases the efficacy of pinoxaden

CCCCCCOC(=O)c1ccc(C(=O)OCCCCCC)c(C(=O)OCCCCCC)c1 [Tri-n-hexyltrimellitate, Tri-n-hexyl trimellitate]
adjuvant efficacy in words (mesotrione) ([2]; conclusion from Table 6): as effective an adjuvant as either acetyl tributyl citrate or Tween®20 | adjuvant efficacy in words (pinoxaden) ([5]; conclusion from Table 7): more effective an adjuvant than acetyl tributyl citrate | adjuvant efficacy in words (isopyrazam, S. tritici) (Septoria tritici): as efficacious as the commercial tank mix adjuvant Turbocharge® | adjuvant efficacy in words (nicosulfuron) ([3]; conclusion from Table 4): as effective an adjuvant as either tris-2-ethylhexylphosphate or acetyl tributyl citrate | adjuvant efficacy in words (nicosulfuron) [4]: more effective an adjuvant than methyl oleate and as effective an adjuvant as Atplus®411F | adjuvant efficacy in words (pinoxaden) [6]: increases the efficacy of pinoxaden | adjuvant efficacy in words (fomesafen) ([1]; conclusion from Table 5): as effective an adjuvant as Turbocharge® and better than acetyl tributyl citrate | mortality of Tetranychus urticae (Tetranychus urticae; composition without abamectin, 0.1% v/v Morflex 560): no mortality was observed | adjuvant efficacy in words (abamectin, Tetranychus urticae) (Tetranychus urticae; conclusion from Table 10): provided effective control of Tetranychus urticae at much lower concentrations of abamectin than are required in the absence of adjuvant

Abamectin
% mortality of Tetranychus urticae (Tetranychus urticae; abamectin 0.2 ppm): 0% | % mortality of Tetranychus urticae (Tetranychus urticae; abamectin 0.4 ppm): 0% | % mortality of Tetranychus urticae (Tetranychus urticae; abamectin 0.8 ppm): 27% | % mortality of Tetranychus urticae (Tetranychus urticae; abamectin 1.5 ppm): 70% | % mortality of Tetranychus urticae (Tetranychus urticae; abamectin 3 ppm): 95%
